Measurements reported in US8937167B2 (Washington University, priority 2009, dated 2015).
pEC50, pKd: −log10 of the molar value. In brackets after ≈: the same amount, converted by molar mass. Entries after “also recorded” stand apart in the source; their conditions may differ. Like-named read-outs stand apart in the source and are kept apart here. Blank lines part the entries; values can stand above or below the molecule they belong to.

Key:
UTI89 [1] = assay: Enumeration of bladder IBCs by LacZ staining in infected mice; type: in vivo, E. coli (UPEC); host C3H/HeN mouse; details: 6 hours post-infection
Method: After invasion, UPEC are able to rapidly replicate to form IBCs, thus dramatically expanding in numbers. After maturation of the IBC, bacteria are able to disperse from the biomass and spread to neighboring cells to expand the buildup in bacterial numbers via next generation IBC. The ability of mannosides to block IBC formation was evaluated based on LacZ staining of whole mount bladders, a protocol developed to enumerate IBCs. Whole bladder titers were also determined by quantifying colony forming units (CFUs) at 6 hours post-infection and later time points as test compounds were further developed.
(§1) Enumeration of bladder IBCs. For bacterial pretreatment experiments, mannoside was added to the bacterial suspension and incubated for 20 min. For animal pretreatment experiments, mannoside ZFH-2056 was administered either IP (5 mg/kg) or orally (100 mg/kg) 30 min prior to inoculation with UTI89. To accurately count the number of IBCs, mice were sacrificed 6 hpi and bladders were aseptically removed, bisected, splayed on silicone plates and fixed in 2% paraformaldehyde (v/v). IBCs, readily discernable as punctate violet spots, were quantified by LacZ staining of whole bladders.
as §1, with “For” for “Enumeration of bladder IBCs. For bacterial pretreatment experiments, mannoside was added to the bacterial suspension and incubated for 20 min. For”

FimH [2] = target: FimH (Escherichia coli, UniProt Q1R2J4);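 also: hemagglutination inhibition of guinea pig erythrocytes agglutinated by type 1 piliated uropathogenic E. coli via FimH mannose binding, quantified through serial dilutions of compound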
UTI89 [3] = assay: Mouse UTI model, bladder bacterial titers (CFU); type: in vivo, E. coli (UPEC); host C3H/HeN mouse; details: 6 hours post-infection
Method: For mannoside treatment, bacteria were incubated with 1 mM ZFH56 prior to inoculation. Every 24 h for 3 days, mice were transurethrally inoculated with 1 mM ZFH56. For antibiotic treatment, mice were inoculated with UTI89 and immediately given antibiotics in the drinking water for 3 days. Antibiotics used were trimethoprim-sulfamethoxazole (SXT) at […], respectively. For dual treatment, bacteria were incubated with 1 mM ZFH56 prior to inoculation. Every 24 h for 3 days, mice were transurethrally inoculated with 1 mM ZFH56. Additionally, mice were immediately given antibiotics in the drinking water for 3 days as in the antibiotic only treatment. Urine was collected every day for 13 days. At 2 weeks, mice were sacrificed and bladders were titered.
UTI89 biofilm was grown in LB+/− mannoside for 24 h at 22° C. in PVC plates and quantitated using crystal violet. UTI89 biofilm for confocal microscopy was grown in LB for 24 h at 22° C. on PVC coverslips. Mannoside was then added and biofilm was grown for an additional 16 h. Coverslips were then washed in PBS, fixed in 2% paraformaldehyde and stained with SYTO9 prior to confocal microscopy. For all animal experiments UTI89 or PBC-1 was grown 2×24 h statically in LB at 37° C. and inoculated at a dose of 1×10^7 bacteria in 50 μl. All mice used were female C3H/HeN (Jackson). For the pretreatment studies, bacteria were incubated with mannoside for 20 min prior to inoculation into the mouse. […] For CFU counts, bladders were harvested at 6 hpi and placed in 1 mL PBS. Bladders were then homogenized, diluted and plated on LB. After growth at 37° C. overnight, bacterial counts were determined. LacZ staining and gentamicin protection assays were performed at 6 hpi. […] Water was changed daily with fresh antibiotics. Standard growth curve assays and hemagglutination assays were performed with TMP-SMZ. All statistical analysis performed was a two-tailed Mann-Whitney U test.
Animal infections. Bacteria were grown under type 1 pili-inducing conditions (2×24 h at 37° C. statically in LB). The bacteria were harvested and resuspended to an OD600 of 0.5 in PBS. Eight-week-old C3H/HeN (Harlan) female mice were anesthetized by inhalation of isoflurane and infected via transurethral catheterization with 50 μl of the bacterial suspension, resulting in 1-2×10^7 inoculum. At 6 hpi, mice were sacrificed by cervical dislocation under anesthesia and the bladders were immediately harvested and processed as described below. All animal studies using mice were approved by the Animal Studies Committee of Washington University (Animal Protocol Number 20100002).
Bladder tissue bacterial titer determination. Mannoside ZFH-2056 was administered either IP (5 mg/kg) or orally (100 mg/kg) 30 min prior to inoculation with UTI89. […]

UTI89 [4] = assay: Ex vivo gentamicin protection assay of infected mouse bladders (luminal vs intracellular bacteria); type: in vivo, E. coli (UPEC); host mouse; details: 1 hour post-infection, bacteria inoculated in presence of mannoside
Description: Based on the extensive elucidation of the UPEC pathogenic cascade, critical nodes in pathogenesis that mannosides would target and thereby have powerful and potent therapeutic ramifications were identified. The first step in the UPEC pathway involves FimH-mediated colonization of the bladder epithelium via the recognition of mannose receptors. Bacterial invasion into superficial bladder umbrella cells can then ensue. […] To test this, a well-established gentamicin protection assay that allows the determination of the luminally bound fraction versus the intracellular fraction was utilized (FIG. 10). […] This may be due to contamination from bacteria in the urine or bacteria that are non-specifically associated with the epithelium. In any case, blocking invasion blocks the ability of the bacteria to rapidly expand in numbers. This is due to the ability of the mannosides to block the IBC mechanism.
Gentamicin protection assay. To enumerate bacteria present in the intracellular versus extracellular compartments, bladders were aseptically harvested at 6 hpi. The bladders were then bisected twice and washed three times in 500 μl of PBS each. The wash fractions were pooled, lightly spun at 500 rpm for 5 min to pellet exfoliated bladder cells, serially diluted, and plated onto LB agar to obtain the luminal fraction. The bladders were treated with 100 μg of gentamicin/ml for 90 min at 37° C. After treatment, the bladders were washed twice with PBS to eliminate residual gentamicin, homogenized in 1 ml of PBS, serially diluted, and plated onto LB agar to enumberate the CFUs in the intracellular fraction.
To enumerate bacteria present in the intracellular versus extracellular compartments, bladders were aseptically harvested at 6 hpi. The bladders were then bisected twice and washed three times in 500 μl of PBS each. The wash fractions were pooled, lightly spun at 500 rpm for 5 min to pellet exfoliated bladder cells, serially diluted, and plated onto LB agar to obtain the luminal fraction. The bladders were treated with 100 μg of gentamicin/ml for 90 min at 37° C. […]

FimH [5] = target: T1, FimH (Escherichia coli, UniProt P08191); details: previously reported, SPR, cited from earlier work
FimH [6] = target: T1, FimH; assay: biochemical; type: binding, E. coli; details: FP assay potency
Description: In order to more accurately determine the relative contributions of both binding affinity to FimH versus other compound properties to the potency seen in the cellular HA titer assay, a high-throughput fluorescence polarization (FP) (or anisotropy) competitive binding assay was developed using a fluorescent-labeled mannoside ligand shown in Scheme 4.
A fluorescent polarization assay was developed and miniaturized to monitor the direct binding of a synthesized fluorescently labeled butyl mannose derivative to the FimH receptor as well as competitive displacement by other synthetic mannosides. This fluorescent polarization assay provides a rapid method for monitoring improvements to receptor affinity during the synthetic process, as well as providing Kd binding affinity measurements.

UTI89 [7] = assay: Growth curve / MIC determination in LB; type: cell-based, E. coli (UPEC); details: Escherichia coli
Method: (§2) Mannoside 6 was added at 100 μM. Growth curves were performed in a 96-well plate at 37° C. with A600 readings taken every 30 min for 8 h. Minimum inhibitory concentration (MIC) was calculated as the lowest concentration of antibiotic that prevented growth of the bacterial strain.

PBC-1 = assay: Growth curve / MIC determination in LB; type: cell-based, E. coli (UPEC); details: PBC-1
Method: Growth curve. […] Mannoside ZFH-2056 was added at 100 μM. Growth curves were performed in a 96-well plate at 37° C. with A600 readings taken every 30 min for 8 h.
as §2

UTI89 biofilm [8] = assay: UTI89 type 1 dependent biofilm formation (inhibition/prevention) assay on PVC, crystal violet; type: cell-based, uropathogenic E. coli UTI89; details: 1 mM
Summary of the method: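 Prevention: UTI89 grown in LB in PVC wells at 23° C with mannoside at varying concentrations for 48 h, then crystal violet stained and quantified. Disruption: 24 h UTI89 biofilm, mannoside added, grown 16 h more, then crystal violet.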

UTI89 biofilm [9] = assay: Biofilm in human urine under flow on silicone tubing (crystal violet, CFU); type: cell-based, uropathogenic E. coli UTI89; details: 1% in human urine, 24 h
Method: Biofilms were grown as described by Ferrieres et al. (2007; FEMS Immun. Med. Micro 51:212) on All Silicone Foley catheters (Bard Medical, GA) or silicone tubing (Thermo Fisher Scientific Inc., PA) and modified as follows. All tubing and connectors in the system were autoclaved and ethanol sterilized prior to use. The system was assembled similar to the previously described flow-chamber system. Priming of the catheter or the silicone tubing occurred at 37° C. for 20 min by flowing pre-warmed pooled human urine. Urine was collected from healthy volunteers as approved by the Institutional Review Board of Washington University in St. Louis. Pooled samples were spun at 10000×g for 15 min, filtered through […], and, if necessary, stored at 4° C. for no more than 3 days. Three milliliters of stationary-phase E. coli from overnight cultures were diluted to 1−2×10^6 CFU/ml in human urine and injected into the catheter or silicone tubing using a 30 cc gauge needle. The bacteria were allowed to attach to the substratum for 1 h before urine flow via Watson-Marlow peristaltic pump 205S was resumed at 0.5 ml min^−1. […] Viable bacterial counts were assessed by serial dilution on LB plate with appropriate antibiotics. […] The bound crystal violet was then dissolved in 200 μl of 33% acetic acid and absorbance measured at 595 nm. The amount of biofilm was expressed as CFU/ml per cm^2 and A595/cm^2. […]

[10] = UTI89 inoculated in presence of pilicide

Compound: NC(=O)c1cccc(OC2OC(CO)C(O)C(O)C2O)c1 (stereo not drawn) [Compound 2ZFH98, 3-[3,4,5-trihydroxy-6-(hydroxymethyl)tetrahydropyran-2-yl]oxybenzamide]
- IBCs (UTI89 [1]; 0.1 mM mannoside): significantly reduced IBCs
- IBCs (UTI89 [1]; 1 mM mannoside): significantly reduced IBCs
- HAI Titer EC>90 (FimH [2]): 16.000 µM
- bladder CFUs / colonization (UTI89 [3]; 1 mM mannoside treated bacteria): significantly reduced colonization
- intracellular bacteria (UTI89 [4]): significant decrease

Compound: O=C(O)[C@@H]1CSc2c(-c3cccc(C(F)(F)F)c3)c(Cc3cccc4ccccc34)cc(=O)n21 [FN075, reference compound]
- IBCs in the bladder (UTI89 [1]; [10]): significant attenuation of virulence; also recorded: significantly less IBCs
- bacterial load within the bladder (UTI89 [3]; [10]): significant attenuation of virulence; also recorded: significantly reduced bacterial load

Compound: CCCCCCCOC1OC(CO)C(O)C(O)C1O (stereo not drawn) [Heptyl mannoside, reference compound]
- pKd (FimH [5]): 8.30
- pEC50 (FimH [6]): 7.05

- MIC (UTI89 [7]): 0.25 µg/mL (≈ 0.987 µM)
Compound: Cc1cc(NS(=O)(=O)c2ccc(N)cc2)no1 [SMZ, Sulfamethoxazole]

Compound: COc1cc(Cc2cnc(N)nc2N)cc(OC)c1OC [TMP, Trimethoprim]
- MIC (UTI89 [7]): 0.05 µg/mL (≈ 0.172 µM)
- MIC (PBC-1; Escherichia coli, read-out: Minimum Inhibition Concentration (MIC)): 256 µg/mL (≈ 882 µM)
- MIC (PBC-1): 0.000256 µg/mL (≈ 0.000882 µM)

Compound: CCCCO[C@H]1O[C@H](CO)[C@@H](O)[C@H](O)[C@@H]1O [butylmannoside, α-D-butylmannoside]
- pKd (FimH [5]; read-out: KD): 6.82

Compound: CCCCCCCO[C@H]1O[C@H](CO)[C@@H](O)[C@H](O)[C@@H]1O [heptyl mannose]
- inhibition of UPEC biofilm formation in vitro (UTI89 biofilm [8]): inhibited UPEC biofilm formation
- virulence / bladder bacterial load (UTI89 [3]; UTI89 incubated with 5 mM compound before inoculation): significant attenuation of virulence; also recorded: reduction of bacterial load in the bladder

Compound: COC1O[C@H](CO)[C@@H](O)[C@H](O)[C@@H]1O (stereo partly drawn) [methyl mannose]
- biofilm biomass (crystal violet) (UTI89 biofilm [9]): significantly reduced biomass; also recorded: prevents UPEC biofilm formation
- biofilm-adherent cells (CFU) (UTI89 biofilm [9]): significantly reduced
